How the values were obtained:
Type in all cases: binding
[1] = target: T1, dihydroorotase (ScDHOase) (Saccharomyces cerevisiae, UniProt P20051); assay: Kd by intrinsic fluorescence quenching
T1 construct: gene URA4
T1 sequence (P20051 1-364): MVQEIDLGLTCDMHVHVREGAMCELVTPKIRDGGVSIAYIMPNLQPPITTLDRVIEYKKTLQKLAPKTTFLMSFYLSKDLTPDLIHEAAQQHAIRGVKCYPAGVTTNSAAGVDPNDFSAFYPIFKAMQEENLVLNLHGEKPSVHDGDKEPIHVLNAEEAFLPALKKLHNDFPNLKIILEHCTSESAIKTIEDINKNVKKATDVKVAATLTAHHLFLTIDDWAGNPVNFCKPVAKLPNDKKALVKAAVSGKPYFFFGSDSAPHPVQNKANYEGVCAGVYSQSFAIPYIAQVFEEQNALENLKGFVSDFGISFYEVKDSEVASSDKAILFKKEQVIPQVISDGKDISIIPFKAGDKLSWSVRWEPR

[2] = target: T2, dihydroorotase (ScDHOase-R18A) (Saccharomyces cerevisiae, UniProt P20051, R18A); assay: intrinsic fluorescence quenching titration
T2 construct: gene URA4

[3] = target: T3, dihydroorotase (ScDHOase-T106A) (Saccharomyces cerevisiae, UniProt P20051, T106A); assay: intrinsic fluorescence quenching titration
T3 construct: gene URA4
T3 sequence (P20051 whole entry T106A): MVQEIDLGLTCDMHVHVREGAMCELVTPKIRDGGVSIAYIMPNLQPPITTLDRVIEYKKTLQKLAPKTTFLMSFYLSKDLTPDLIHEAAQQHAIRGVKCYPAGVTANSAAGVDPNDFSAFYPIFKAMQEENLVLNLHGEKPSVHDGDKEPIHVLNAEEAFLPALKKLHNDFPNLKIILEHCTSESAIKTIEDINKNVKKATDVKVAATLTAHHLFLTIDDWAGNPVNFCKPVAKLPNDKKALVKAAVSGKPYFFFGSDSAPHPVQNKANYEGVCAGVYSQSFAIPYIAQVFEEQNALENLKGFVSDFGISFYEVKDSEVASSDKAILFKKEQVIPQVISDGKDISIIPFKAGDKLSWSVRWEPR

T2 sequence (P20051 whole entry R18A): as the sequence (P20051 whole entry T106A) above, with R18A, A106T counted along it

SMILES: O=C(O)c1[nH]c(=O)[nH]c(=O)c1F [5-FOA, 5-fluoroorotate]
- Kd [1]: 83.8 ± 1.5 µM
- Kd [2]: 144 ± 2.1 µM
- Kd [3]: 115 ± 3.7 µM

— PMC8497156, “Complexed Crystal Structure of Saccharomyces cerevisiae Dihydroorotase with Inhibitor 5-Fluoroorotate Reveals a New Binding Mode” (Bioinorganic Chemistry and Applications, 2021)
